14 compounds from patent publication US20110195979A1, “COMPOUNDS FOR THE TREATMENT AND PREVENTION OF INFLUENZA” (priority 2010, published 2011) can be followed below.

Data set [1] deals with MDCK cells. As to the kind of experiment: in vitro. The note with it: dog, Cytotoxicy IC50.
Data set [2] concerns Influenza H1N1 virus. As to the kind of experiment: Viral cytopathic effect (CPE) assay. Type of data set: cell-based, Influenza A (H1N1). To be noted: Influenza A virus, H1N1, MDCK, 72 h, read-out: CPE_EC50. As to the method:
Cells and viruses. Madin-Darby canine kidney cell (MDCK) was purchased from American type culture collection (ATCC) and was maintained in minimal essential medium (MEM) containing 10% fetal bovine serum and antibiotics. Influenza A/Weiss/43 (H1N1), A/PR/8/34 (H1N1), and A/Hongkong/8/68 (H3N2) were purchased from ATCC and propagated in 10-day-old embryonated chicken eggs at 37° C. Virus was harvested 48 h after inoculation as pooled allantoic fluid. After a brief centrifugation (3,000 rpm at room temperature for 20 min) and virus titer measurement by a hemagglutination test, virus was aliquoted and stored at a −80° C. freezer.
Viral cytopathic effect (CPE) assay: To measure anti-influenza activity of compounds, MDCK cells were seeded into 96-well plates at a density of 5,000 cells per well. Next day, compounds were serially half-log diluted with Gibco SFM containing trypsin. Compounds and 50 pfu of virus were added into corresponding wells to make m.o.i at 0.01 and a final trypsin concentration of 2.5 μg/ml. The testing plates also contained medium control, cell control, virus control, and compound toxicity control. After a 3-day treatment, cell viability was measured with a MTT (3-(4,5-dimethylthiazol-2-yl)-2,5-diphenyltetrazolium bromide) method. Briefly, 20 μl of MTT diluted in culture medium was added into each wells and incubated at 37° C. for 4 hours. Reduced MTT (formazan) was extracted with acidic isopropanol and absorbance at wavelengths of 570 nm and 630 nm (OD570 and OD630) was read on a microtiter plate reader. After subtraction of background OD values, dose response curves of half-log concentration vs. percent protection were generated, on which half maximal effective concentration (EC50) and half maximal toxic concentration (CC50) were calculated.

`CC1(C)CC(O)CC(C)(CNc2ncccc2C(F)(F)F)C1` (stereo not drawn) [Example IIIa-5, (cis-1,5)-3,3,5-Trimethyl-5-[(3-trifluoromethyl-pyridin-2-ylamino)-methyl]-cyclohexanol]: in data set [1], the IC50 at 3 day was 22.1 µM. In data set [2], the EC50 was below 0.159 µM.
On the same counts, the results for `CC1(C)CC(O)CC(C)(CNc2cc(S(N)(=O)=O)ccn2)C1` (stereo not drawn) [Example IIIa-8, 2-[((cis-1,5)-5-Hydroxy-1,3,3-trimethyl-cyclohexylmethyl)-amino]-pyridine-4-sulfonic acid amide] are above 100 µM and 0.98 µM.
Compound `CC1(C)CC(O)CC(C)(CNc2nccc(C(F)(F)F)n2)C1` (stereo not drawn) [Example IIIa-10, (cis-1,5)-3,3,5-Trimethyl-5-[(4-trifluoromethyl-pyrimidin-2-ylamino)-methyl]-cyclohexanol] yielded an IC50 at 3 day in data set [1] of 47.8 µM. In addition, the EC50 in data set [2] was determined as 0.12 µM.
In data set [1], `COc1ccnc(NCC2(C)CC(O)CC(C)(C)C2)n1` (stereo not drawn) [Example IIIa-11, (cis-1,3)-3-[(4-Methoxy-pyrimidin-2-ylamino)-methyl]-3,5,5-trimethyl-cyclohexanol] gave an IC50 at 3 day above 50 µM. The EC50 in data set [2] turned out to be 1.5 µM.
On the same counts, the results for `Cc1cc(C)nc(NCC2(C)CC(O)CC(C)(C)C2)n1` (stereo not drawn) [Example IIIa-13, (cis-1,3)-3-[(4,6-Dimethyl-pyrimidin-2-ylamino)-methyl]-3,5,5-trimethyl-cyclohexanol] are above 100 µM and 1.37 µM.
On the same counts, the results for `CC1(C)CC(O)CC(C)(CNc2cncc(Cl)n2)C1` (stereo not drawn) [Example IIIb-1, (cis-1,3)-3-[(6-Chloro-pyrazin-2-ylamino)-methyl]-3,5,5-trimethyl-cyclohexanol] are above 50 µM and 4.12 µM.
On to `CC1(C)CC(O)CC(C)(CNc2nc3ccccc3o2)C1` (stereo not drawn) [Example IIIc-1, (cis-1,3)-3-(Benzoxazol-2-ylaminomethyl)-3,5,5-trimethyl-cyclohexanol], for which the IC50 at 3 day in data set [1] is 83 µM. In addition, the EC50 in data set [2] came out at 1.42 µM.
For `CC1(C)CC(F)(F)CC(C)(CNc2nc3ccccc3o2)C1` (stereo not shown) [Example IIIc-2, Benzoxazol-2-yl-(3,3-difluoro-1,5,5-trimethyl-cyclohexylmethyl)-amine], in data set [1], it took 10.9 µM to reach half-maximal inhibition (IC50 at 3 day). Also, in data set [2], the EC50 came out at 3.36 µM.
The corresponding values for `COC1CC(C)(C)CC(C)(CNc2nc3ccccc3o2)C1` (stereo not drawn) [Example IIIc-3, Benzoxazol-2-yl-((cis-1,5)-5-methoxy-1,3,3-trimethyl-cyclohexylmethyl)-amine] are above 50 µM and 7.43 µM.
The corresponding values for `CC1(C)CC(O)CC(C)(CNc2noc3ccccc23)C1` (stereo not drawn) [Example IIId-1, (cis-1,3)-3-(Benzo[d]isoxazol-3-ylaminomethyl)-3,5,5-trimethyl-cyclohexanol] are above 50 µM and 0.4 µM.
For `CC1(C)CC(O)CC(C)(CNc2nccc3ccccc23)C1` (stereo not drawn) [Example IIIf-1, (cis-1,3)-3-(Isoquinolin-1-ylaminomethyl)-3,5,5-trimethyl-cyclohexanol], the IC50 at 3 day in data set [1] was 43.7 µM. Further, the EC50 in data set [2] turned out to be 2.37 µM.
In data set [1], `COc1cccc(NCC2(C)CC(O)CC(C)(C)C2)c1` (stereo not drawn) [Example IIa-8, (cis-1,3)-3-[(3-Methoxy-phenylamino)-methyl]-3,5,5-trimethyl-cyclohexanol] came in with an IC50 at 3 day above 50 µM. Besides, the EC50 in data set [2] worked out at 0.2 µM.
Regarding `CC(C)c1cccc(NCC2(C)CC(O)CC(C)(C)C2)c1` (stereo not drawn) [Example IIa-12, (cis-1,3)-3-[(3-Isopropyl-phenylamino)-methyl]-3,5,5-trimethyl-cyclohexanol], it took 6.68 µM to reach half-maximal inhibition in data set [1] (IC50 at 3 day). In data set [2], the EC50 amounted to 0.09 µM.
`CC1(C)CC(O)CC(C)(CNc2cc(F)cc(C(F)(F)F)c2)C1` (stereo not drawn) [Example IIa-17, (cis-1,3)-3-[(3-Fluoro-5-trifluoromethyl-phenylamino)-methyl]-3,5,5-trimethyl-cyclohexanol] gave an IC50 at 3 day in data set [1] of 3.66 µM. The EC50 in data set [2] was 0.018 µM.

The term IC50 denotes the concentration that gives 50% inhibition. Lower therefore signals greater potency.
